# Where a name gives a salt, the structure may show the parent alone.
row,melting point,SMILES
1,159 to 162 °C,Cc1cc(C(C)(C)C)c(O)c(S(=O)(=O)Nc2ccc(C#N)c(C(F)(F)F)c2)c1
2,101 to 105 °C,"Cc1cc(C(C)(C)C)c(O)c(S(=O)(=O)Nc2ccc(C#N)cc2Cl)c1 [Example 3, 3-tert-Butyl-N-(2-chloro-4-cyano-phenyl)-2-hydroxy-5-methyl-benzenesulfonamide]"
3,130 to 134 °C,"COc1ccc(NS(=O)(=O)c2cc(C)cc(C(C)(C)C)c2O)cc1 [Example 5, 3-tert-Butyl-2-hydroxy-N-(4-methoxy-phenyl)-5-methyl-benzenesulfonamide]"
4,239 to 243 °C,"Cc1cc(C(C)(C)C)c(O)c(S(=O)(=O)Nc2ccc([N+](=O)[O-])cc2Cl)c1 [Example 1, 3-tert-Butyl-N-(2-chloro-4-nitro-phenyl)-2-hydroxy-5-methyl-benzenesulfonamide]"
5,184 to 185 °C,"Cc1cc(C(C)(C)C)c(O)c(S(=O)(=O)Nc2ccc(I)cc2)c1 [Example 4, 3-tert-Butyl-2-hydroxy-N-(4-iodo-phenyl)-5-methyl-benzenesulfonamide]"
6,106 to 108 °C,"CCC(C)c1cc(C(C)(C)C)c(O)c(S(=O)(=O)Nc2ccc([N+](=O)[O-])cc2Cl)c1 (stereo not shown) (as salt: Na) [Example 7, 5-sec-Butyl-3-tert-butyl-N-(2-chloro-4-nitro-phenyl)-2-hydroxy-benzenesulfonamide]"
7,158 to 161 °C,"CC(C)(C)c1cc(C(C)(C)C)c(O)c(S(=O)(=O)Nc2ccc([N+](=O)[O-])cc2Cl)c1 [Example 6, 3,5-Di-tert-butyl-N-(2-chloro-4-nitro-phenyl)-2-hydroxy-benzenesulfonamide]"

# Reference: patent US20080255240A1, “Sulfonamide Derivatives” (Novo Nordisk A/S, priority 2004, published 2008)
